Measured values: PubChem BioAssay (NCI)
“And” between values parts separate entries of the source, which are not always exact repeats. Equal entries are not always repeated.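 Results reflect a 48-hour exposure of cells in 96-well plates to compound at five concentrations. GI50 marks 50% less growth. Definition used: TGI = concentration required for complete inhibition of growth.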

Experiments:
Test in all cases: NCI tumour cell line growth inhibition, 48 h
[1] = system: DLD-1 colon
[2] = system: HOP-18 NSCLC
[3] = system: LXFL 529 NSCLC
[4] = system: M19-MEL melanoma
[5] = system: RXF-631 renal
[6] = system: SNB-78 CNS
[7] = system: KM20L2 colon
[8] = system: XF 498 CNS
[9] = system: MDA-N
[10] = system: P388 leukemia
[11] = system: P388/ADR leukemia
[12] = system: SN12K1 renal

| Compound | TGI [1] | TGI [2] | TGI [3] | TGI [4] | TGI [5] | TGI [6] | TGI [7] | TGI [8] | TGI [9] | also measured |
| --- | --- | --- | --- | --- | --- | --- | --- | --- | --- | --- |
| NC(CCCC(N)P(=O)(O)O)P(=O)(O)O (configuration not stated) | > 100 µM | > 100 µM | > 100 µM | > 100 µM | > 100 µM | > 100 µM |  |  |  |  |
| CCC[CH2][Sn]([CH2]CCC)([O]C(=O)CN)[O]C(=O)CN | > 100 µM |  | 26 µM | > 100 µM |  | 72 µM | > 100 µM | 48 µM |  | GI50 [1]: 92.7 µM; GI50 [7]: 63.6 µM; GI50 [3]: 11.4 µM; GI50 [4]: 49.7 µM; GI50 [6]: 21.6 µM; GI50 [8]: 19.6 µM |
| CCCCCCCCCCCCCP(=O)(O)O | > 100 µM | > 100 µM | > 100 µM | > 100 µM | > 100 µM | > 100 µM | > 100 µM | > 100 µM |  |  |
| N#C/C(=C/c1cccc(Oc2ccccc2)c1)c1ccccc1 | > 100 µM | > 100 µM | > 100 µM | > 100 µM |  | > 100 µM |  | > 100 µM |  |  |
| CCC1=CCN(c2cc(C)ccn2)OC1c1ccc(OC)cc1 (configuration not stated) | > 100 µM |  | > 100 µM | > 100 µM | > 100 µM |  | > 100 µM |  |  |  |
| COc1ccc([C@@]2(O)c3c(ccc(O)c3OC)[C@H]2OC)c(OC)c1 | > 100 µM |  | > 100 µM | > 100 µM |  |  | > 100 µM | > 100 µM |  |  |
| Cc1ccc(S(=O)(=O)N=Nc2c(O)[nH]c3cc(O)c(C(=O)O)cc23)cc1 |  |  |  |  |  |  |  |  | > 100 µM |  |
| CNC(=O)OCc1nc(SSC(C)(C)C)n(C)c1COC(=O)NC | 3.18 µM | 10.8 µM | 2.74 µM | 13.6 µM | 3.42 µM | 21.2 µM | 25.6 µM | 5.47 µM | 6.59 µM | TGI [10]: > 100 µM; TGI [11]: > 28.2 µM; TGI [12]: 14.9 µM |
| COc1ccc(C=O)cc1O[Si](C)(C)C(C)(C)C | > 100 µM | > 100 µM | > 100 µM | > 100 µM |  | > 100 µM | > 100 µM |  |  |  |
| O=C(O)CCCc1ccc2ccc3ccccc3c2c1 |  |  |  |  |  |  |  |  | > 100 µM |  |
| COc1ccc2nc3cc(Cl)ccc3c(Sc3ccc([N+](=O)[O-])cc3C)c2c1 | > 100 µM | > 100 µM | > 100 µM | > 100 µM |  | > 100 µM | > 100 µM | > 100 µM |  |  |
| O=C(Nc1ccc(C(F)(F)F)cc1[N+](=O)[O-])C(=O)C1NC(=S)NC1=O (configuration not stated) | > 100 µM | > 100 µM | > 100 µM | > 100 µM | > 100 µM | > 100 µM | > 100 µM |  |  |  |
| Cc1ccc(C)c(NC(=O)CC2Sc3ccccc3NC2=O)c1 (configuration not stated) | > 100 µM | 36 µM and 70 µM | > 100 µM | > 100 µM |  | 28.9 µM and 61.1 µM | > 100 µM | 22.7 µM and > 100 µM | > 100 µM | GI50 [1]: > 93.6 µM; GI50 [3]: 23 µM and 99 µM; GI50 [4]: 37 µM and > 100 µM; GI50 [9]: 22.1 µM and > 65.6 µM; GI50 [8]: 13.7 µM and 29.1 µM |
| COCCOC(=O)C1=C(O)c2ccccc2S(=O)(=O)N1C |  |  |  |  |  |  |  |  | > 100 µM |  |
| O=C1C(=O)c2ccccc2C(O)=C1C(C1=C(O)c2ccccc2C(=O)C1=O)c1ccc(Cl)cc1 |  |  |  |  |  |  |  |  | 3.74 µM |  |
| CC(C)C(O)(C(C)C)C(C)C |  |  |  |  |  |  |  |  | > 100 µM |  |
| CC(=O)Oc1c(C)c(-c2ccccc2)c(C)c(-c2ccccc2)c1C(=S)c1ccccc1 | > 100 µM | > 100 µM | > 100 µM | > 100 µM | > 100 µM | > 100 µM | > 100 µM |  |  |  |
| C[C@]12CC=CC(=O)[C@@]1(C)CCC(=O)C2 | > 100 µM |  | > 100 µM | > 100 µM | > 100 µM | > 100 µM |  | > 100 µM |  |  |
| COc1cc(NCC(C#N)C#N)ccc1N=Nc1ccc(Cl)cc1 | 85.4 µM | 39.7 µM | 51.7 µM | 55.9 µM | > 100 µM | 98.8 µM | 29.3 µM |  |  |  |
| O=C(NC(=O)c1c(F)cccc1F)Nc1cccc(Oc2ncc(Cl)cn2)c1 | > 100 µM | > 100 µM | > 100 µM | > 100 µM | > 100 µM | > 100 µM |  | 69 µM | > 22.7 µM |  |
| COc1cc(NS(=O)(=O)c2ccc(C)cc2)c2nccnc2c1 | > 100 µM | > 100 µM | > 100 µM | 55 µM |  |  | > 100 µM | > 100 µM |  |  |
| CN(C)CCOc1ccc([N+](=O)[O-])c2cccnc12 |  |  |  |  |  |  |  |  | > 100 µM |  |

| Compound | TGI [1] | TGI [2] | TGI [3] | TGI [4] | TGI [5] | TGI [6] | TGI [7] | TGI [8] | TGI [9] | also measured |
| --- | --- | --- | --- | --- | --- | --- | --- | --- | --- | --- |
| COC(=O)C(=O)CC(=O)CCn1[nH]c(=O)c(Cl)c(Cl)c1=O | > 100 µM |  | > 100 µM | > 100 µM |  | > 100 µM | > 100 µM | > 100 µM |  |  |
| CC(=O)Oc1cc2c(cc1OC(C)=O)C1(C)CCC2(C)c2cc(OC(C)=O)c(OC(C)=O)cc21 | > 100 µM |  | 19.6 µM | 75.2 µM | > 100 µM | > 100 µM | 79.5 µM | 29.1 µM |  |  |
| Cc1cn(C2CC(OC(=O)c3ccc(Cl)cc3)C(COC(=O)c3ccc(Cl)cc3)O2)c(=O)[nH]c1=O (configuration not stated) |  |  |  |  |  |  |  |  | > 100 µM |  |
| O=C1C=C(Nc2ccccc2C(=O)CC(=O)C(=O)Nc2cccc([N+](=O)[O-])c2)c2ccccc2C1=O | > 100 µM |  | > 100 µM | 19.3 µM | > 100 µM | > 100 µM | > 100 µM | 53.8 µM |  |  |
| C=C(C)C1CC2(C)C(C)CC(O)CC2C(OC(=O)C=C(C)C)C1O (configuration not stated) |  |  |  |  |  |  |  |  | > 100 µM |  |
| O=C1N/C(=C\[N+](=O)[O-])c2ccccc21 | > 100 µM | > 100 µM | > 100 µM | > 100 µM | > 100 µM | > 100 µM | > 100 µM |  |  |  |
| N[C@H](C(=O)O)[C@@H]1CC(Cl)=NO1 | > 1000 µM | > 1000 µM |  |  |  | > 978 µM | > 1000 µM | 250 µM | > 1000 µM | GI50 [9]: 57.2 µM; TGI [10]: 16 µM; TGI [11]: 16.7 µM; TGI [12]: > 1000 µM |
| CC(=O)c1ccc(NC(=O)/C(CC(=O)c2sc(-c3cccnc3)nc2C)=N/NC(N)=O)cc1 |  |  | > 100 µM | > 100 µM |  | > 100 µM | > 100 µM | > 100 µM |  |  |
| NC1=NN(c2ccccc2)C(=O)C1C(=O)CCC(=O)Nc1cccc(Cl)c1 (configuration not stated) | > 100 µM | > 100 µM | > 100 µM | > 100 µM |  | > 100 µM | > 100 µM | > 100 µM |  |  |
| CCCCCCCCCCCCCCCCCCOC[C@H](COP(=O)(O)O[C@H]1[C@H](O)[C@@H](O)[C@H](O)C[C@H]1O)OC |  |  |  |  |  |  |  |  | > 100 µM and 25.4 µM | GI50 [9]: 64.1 µM and 12 µM |
| CCCC1(CC(=O)O)OCCc2c1[nH]c1ccccc21 (configuration not stated) | > 100 µM | > 100 µM | > 100 µM | > 100 µM |  | > 100 µM | > 100 µM | > 100 µM |  |  |
| N#CCC(=O)N/N=C1/C(=O)N(c2ccc(Cl)cc2)C(=O)C(=O)C1c1nc2ccccc2s1 (configuration not stated) | > 100 µM |  | > 100 µM | > 100 µM |  | > 100 µM | > 100 µM | > 100 µM |  |  |
| CN(C)CCC(=O)N1C/C(=C\c2ccc(Cl)c(Cl)c2)C(=O)/C(=C/c2ccc(Cl)c(Cl)c2)C1 | 0.468 µM | 2.3 µM | 0.637 µM | 1.13 µM |  | 1.66 µM | 1.59 µM | 2.32 µM | 0.84 µM |  |
| COc1ccc(C(C#N)NC23CC4CC(CC(C4)C2)C3)cc1 (configuration not stated) |  |  |  |  |  |  |  |  | > 100 µM |  |
| O=C(O)CSCCc1ccccc1 |  |  |  |  |  |  |  |  | > 100 µM |  |
| CC(C)(C)c1cc([N+](=O)[O-])cc([N+](=O)[O-])c1O |  |  |  |  |  |  |  |  | > 10 µM |  |
| O=C(Nc1ccc(Cl)cc1)C1C(=O)C(=O)N(c2ccc(Cl)cc2)C1=O (configuration not stated) | > 100 µM | > 100 µM | > 100 µM | > 100 µM | > 100 µM | > 100 µM | > 100 µM | > 100 µM |  |  |
| CCCCCCCCCCCC(=O)OCCOCCOCCOCCOCCOC(=O)CCCCCCCCCCC | > 100 µM | > 100 µM | > 100 µM | > 100 µM | > 100 µM | > 100 µM | > 100 µM |  |  |  |
| CCN1CCCc2cc3c(C(F)(F)F)cc(=O)oc3cc21 |  |  |  |  |  |  |  |  | > 100 µM |  |
| COc1ccc(NC(=O)CC/C(CC(=O)c2ccco2)=N/NC(=O)C(N)=O)cc1 | > 100 µM | > 100 µM | > 100 µM | > 100 µM |  |  | > 100 µM | > 100 µM |  |  |
| CN(C)Cc1cc(C(F)(F)F)ccc1C(O)(c1ccccc1)c1ccccc1 |  |  |  |  |  |  |  |  | 33.7 µM |  |
| C=CC[P@]1(=O)O[C@H](c2ccccc2)[C@H](C)N1C | > 100 µM | > 100 µM | > 100 µM | > 100 µM |  | > 100 µM |  |  |  |  |
